What was measured:
Assay in all cases: relative viability (nuclei count vs DMSO), 5 days (fraction); higher = more cells survive
[1] = compound: C1COCCN1C2=NC(=NC3=C2OC4=C3C=CC=N4)C5=CC(=CC=C5)NC(=O)C6=CN=C(C=C6)N + Nc1nc2[nH]cc(CCc3ccc(C(=O)N[C@@H](CCC(=O)O)C(=O)O)cc3)c2c(=O)[nH]1 [Pemetrexed] (partner 0.2 µM)
Procedure, shortened: (§1)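 Values are medians from duplicate plates. Each reflects relative viability, defined as the nuclei count of treated wells over that of vehicle wells. Lung cancer cell lines in 1536-well plates were pin-tool dosed one day after seeding with one drug alone or with a fixed anchor-drug dose plus five library-drug doses (not always all listed) in √10 steps, then fixed, stained and imaged at 4× after 5 days.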

SGI-1776 + AZD7762 = compound: CN1CCC(CNc2ccc3ncc(-c4cccc(OC(F)(F)F)c4)n3n2)CC1 [SGI-1776] + NC(=O)Nc1cc(-c2cccc(F)c2)sc1C(=O)N[C@H]1CCCNC1 [AZD7762] (partner 0.2 µM)
Procedure, shortened: as §1

Entinostat + Foretinib = compound: Nc1ccccc1NC(=O)c1ccc(CNC(=O)OCc2cccnc2)cc1 [Entinostat] + COc1cc2c(Oc3ccc(NC(=O)C4(C(=O)Nc5ccc(F)cc5)CC4)cc3F)ccnc2cc1OCCCN1CCOCC1 [Foretinib] (partner 0.25 µM)
Procedure, shortened: as §1

Entinostat + Dasatinib = compound: Nc1ccccc1NC(=O)c1ccc(CNC(=O)OCc2cccnc2)cc1 [Entinostat] + Cc1nc(Nc2ncc(C(=O)Nc3c(C)cccc3Cl)s2)cc(N2CCN(CCO)CC2)n1 [Dasatinib] (partner 0.075 µM)
Procedure, shortened: as §1

Cell Line	relative viability ([1]; first compound 0.02 µM)	relative viability ([1]; first compound 0.06325 µM)	relative viability ([1]; first compound 0.2 µM)	relative viability ([1]; first compound 0.6325 µM)	relative viability ([1]; first compound 2 µM)	relative viability (SGI-1776 + AZD7762; first compound 0.08 µM)	relative viability (SGI-1776 + AZD7762; first compound 0.8 µM)	relative viability (SGI-1776 + AZD7762; first compound 2.53 µM)	relative viability (SGI-1776 + AZD7762; first compound 8 µM)	relative viability (Entinostat + Foretinib; first compound 0.02 µM)	relative viability (Entinostat + Foretinib; first compound 0.06325 µM)	relative viability (Entinostat + Foretinib; first compound 0.2 µM)	relative viability (Entinostat + Foretinib; first compound 0.6325 µM)	relative viability (Entinostat + Foretinib; first compound 2 µM)	relative viability (Entinostat + Dasatinib; first compound 0.02 µM)	relative viability (Entinostat + Dasatinib; first compound 0.06325 µM)	relative viability (Entinostat + Dasatinib; first compound 0.2 µM)	relative viability (Entinostat + Dasatinib; first compound 0.6325 µM)	relative viability (Entinostat + Dasatinib; first compound 2 µM)
NCI-H1915	0.51	0.515	0.471	0.476	0.369	0.756	0.663	0.705	0.791	1.06	1.06	1.07	1	0.592	0.336	0.27	0.238	0.173	0.151
NCI-H647	0.175	0.155	0.141	0.138	0.114	0.479	0.49	0.414	0.319	1.23	1.12	0.826	0.465	0.23	0.197	0.133	0.144	0.0844	0.064
NCI-H441	0.278	0.251	0.248	0.245	0.251	1.25	1.2	1.07	1.13	1.08	1.05	0.805	0.377	0.298	0.705	0.602	0.557	0.259	0.124
PC-14	0.14	0.135	0.129	0.0787	0.0733	0.474	0.352	0.27	0.146	0.991	0.951	0.969	0.441	0.232	0.236	0.261	0.217	0.118	0.0579
NCI-H1944	0.65	0.719	0.589	0.64	0.545	0.619	0.595	0.518	0.441	1	0.711	0.472	0.364	0.218	0.226	0.205	0.199	0.17	0.175
NCI-H2085	0.795	0.872	0.837	0.825	0.586	1.08	1.06	0.978	0.956	1.01	0.969	0.984	0.54	0.401	0.226	0.243	0.228	0.248	0.244
NCI-H2347	0.416	0.528	0.433	0.417	0.427	0.825	0.912	0.81	0.692	0.837	0.812	0.454	0.254	0.37	0.325	0.328	0.196	0.193	0.205
201T	0.285	0.301	0.307	0.38	0.34	0.581	0.604	0.644	0.657	1.12	1.22	1.2	0.958	0.453	0.651	0.559	0.58	0.421	0.313

From the supplement of paper PMC10307832
